Each structure is given as a SMILES string.

As usually defined, the half-life is the time needed for the level to fall by half in the phase considered. The AUC is concentration integrated over time. The term clearance denotes the volume of plasma or blood freed of the substance per unit of time. Low readings indicate a low capacity for elimination, high ones a high capacity for elimination. As usually defined, the Vd is a proportionality between amount in the body and measured concentration, not a real space.

A short description of the series: In vivo pharmacokinetic study in rats. Also on record: species or system Sprague-Dawley rats. On the procedure:
Encouraged by these promising in vitro results, an in vivo pharmacokinetic study was conducted for H2 and L2 in mice (1 mg kg^−1, i. v.) and in rats for L2 (10 mg kg^−1, i. v.). Compound concentrations were monitored in plasma and urine (Figure 6). H2 and L2 were cleared from mouse plasma within 1 h. Both compounds rapidly reached high concentrations in urine, several orders of magnitude above their respective in vitro LecA binding affinity. In fact, concentrations above the K ds were detected over the entire observation period of 5 h. […] In rats, higher amounts of L2 were detected both in plasma and urine, not solely corresponding to the 10‐fold increased dose. […] Importantly, high levels of L2 were present in rat urine even 24 h after administration. […]
Pharmacokinetic studies in rat
The in vivo part of the study was performed by the CRO Pharmacelsus (Saarbrücken, Germany). For rat in vivo pharmacokinetic studies, male Sprague-Dawley rats (Janvier-Labs, France) with 350 g - 400 g body weight were used. All experimental procedures were approved by and conducted in accordance with the regulations of the local Animal Welfare authorities (Landesamt für Gesundheit und Verbraucherschutz, Abteilung Lebensmittel- und Veterinärwesen, Saarbrücken) and any clinical signs of toxicity and any changes in behavior of the animals were recorded. Food and water were provided ad libitum throughout the study. Rats were provided with a catheter in the jugular vein 2 - 3 days prior to drug administration and blood sampling. According to national animal welfare guidelines, rats were treated once with Carprofen (5 mg/kg) directly after catheterization. Catheter was rinsed daily with K3EDTA. L2 was dissolved in PBS (pH 7.4) and administered i.v. in individual PK studies (N = 3) at 10 mg/kg in a volume of 2 mL/kg. At t = 0 h, rats were placed into metabolic cages for drug administration and immediate collection of urine and faeces samples. Further excretion products were collected during 0 - 2 h, 2 - 4 h, 4 - 8 h and 8 - 24 h. Excreta sample volumes were determined and immediately stored at -80 °C until analysis by LC-MS. 80 µL K3EDTA-treated blood was collected at t = 0.083 h, 0.25 h, 0.5 h, 1 h, 2 h, 4 h, 6 h, 8 h and 24 h post dose and samples were stored on ice until centrifugation (10 minutes at 4500 x g, 4 °C). Plasma was prepared within 45 min after collection, frozen and stored at -80 °C until analysis by LC-MS. […]
clinical signs observed after dosing.
Bioanalysis of pharmacokinetic samples from mice and from rat
First, a calibration curve was prepared by spiking different concentrations of L2 and H2 into mouse plasma, rat plasma or mouse urine (matrix for mouse and rat PK samples) from CD-1 mice. Glipizide was used as an internal standard. In addition, quality control samples (QCs) were prepared for L2 and H2 in plasma and urine. The following extraction procedures were used: 7.5 µl of a plasma sample or 15 µl of a urine sample (calibration samples, QCs or PK samples) was extracted with 35 µl of methanol containing 12.5 ng/ml of glipizide as internal standard for 15 min at 2000 rpm on an Eppendorf MixMate vortex mixer. Then samples were spun down at 15870 x g for 10 min. Supernatants were transferred to standard HPLC-glass vials. Samples from the mouse PK study with H2 in mice and from the rat PK study with L2 were analyzed via HPLC-MS/MS as described in the HPLC-MS analysis section above. PK samples from the mouse PK study with L2 were analyzed using an Agilent 1290 Infinity II HPLC system coupled to an AB Sciex QTrap 7500 mass spectrometer. LC conditions were the same as for the analysis of the samples from the mouse PK study with H2 and from the rat PK study with L2. Mass transitions for controls and compounds are depicted in the following table for the AB Sciex Trap 7500 mass spectrometer.
Peaks of PK samples were quantified using the calibration curve. The accuracy of the calibration curve was determined using QCs independently prepared on different days. […]

Turning to `O=C(CCc1ccc(O[C@@H]2O[C@H](CO)[C@H](O)[C@H](O)[C@H]2O)cc1)Nc1ccc(CCc2ccc(NC(=O)CCc3ccc(O[C@@H]4O[C@H](CO)[C@H](O)[C@H](O)[C@H]4O)cc3)cc2S(=O)(=O)O)c(S(=O)(=O)O)c1` [Compound L2], for the setting “24 h after administration, 10 mg kg^−1 i.v.”, the “L2 in rat urine” value is “high levels”. The half-life (male, Sprague-Dawley, iv, rat plasma, 10 mg kg^−1 i.v., N=3) worked out at 37 ± 12 min. Under “male, Sprague-Dawley, iv, rat plasma, 10 mg kg^−1 i.v., read-out: area under the curve (AUC)”, the AUC was 19.7 ± 12.8 µM·h. Also, the MRT (male, Sprague-Dawley, iv, rat plasma, 10 mg kg^−1 i.v., read-out: mean residence time (converted)) is 41 min. This molecule displayed a clearance (male, Sprague-Dawley, plasma, iv, rat, 10 mg kg^−1 i.v.) of 9.84 ± 5 mL/min/kg. Besides, the Vd (male, Sprague-Dawley, plasma, iv, rat, 10 mg kg^−1 i.v., read-out: distribution volume VD) stood at 0.46 L/kg. Besides, the “Time plasma concentration exceeds on-target affinity” value (rat plasma, 10 mg kg^−1 i.v.) is reported as “at least 6 h”. Besides, for the setting “rat, 10 mg/kg i.v.”, the “Behavior and clinical signs after dosing” value was “normal behavior”.

The values are drawn from article PMC10107299, “Neutralizing the Impact of the Virulence Factor LecA from Pseudomonas aeruginosa on Human Cells with New Glycomimetic Inhibitors” (Angewandte Chemie (International Ed. in English), 2023).
